# From article PMC6359144 (International Journal of Molecular Sciences, 2019)
# Like-named read-outs stand apart in the source and are kept apart here.
# Experiments:
# 518A2 melanoma cells [1] = test: MTT assay, 518A2 melanoma cells; format: cell-based, human; details: for IC50: Homo sapiens, MTT, mean ± SD of four experiments
# Protocol: (§1) HT-29 (ACC-299), HCT-116 (ACC-581) and DLD-1 (ACC-278) colon carcinoma, MCF-7 (ACC-115) breast carcinoma, KB-V1 (ACC-149), 518A2 (Department of Radiotherapy and Radiobiology, University Hospital Vienna) melanoma and Ea.Hy926 (ATCC no. CRL-2922) HUVEC derived endothelial hybrid cells line were grown in Dulbecco’s Modified Eagle Medium (DMEM; Biochrom), high glucose supplemented with 10% (v/v) fetal bovine serum (FBS; Biochrom.) and 1% (v/v) Antibiotic-Antimycotic solution (anti-anti; Thermo Scientific). HDFa human dermal fibroblasts (ATCC: PCS-201-012™) were grown in DMEM supplemented with 10% FBS, 1% anti-anti and 2 mM glutamine. The cells were incubated at 37 °C, 5% CO2, 95% humidified atmosphere. By repeated addition of topotecan or vinblastine at the maximum tolerated dose to the cell medium of MCF-7 and KB-V1 cells, the cells were rendered multidrug-resistant, indicated as MCF-7^Topo and KB-V1^Vbl, respectively. They were serially passaged following trypsinization by using 0.05% trypsin/0.02% EDTA (Biochrom). Mycoplasma contamination was routinely monitored, and only mycoplasma–free cultures were used.
# (§2) MTT [3-(4,5-dimethylthiazol-2-yl)-2,5-diphenyltetrazolium bromide] (ABCR) was used to determine the cytotoxicity of test compounds as previously described. Briefly, HDFa human dermal fibroblasts and Ea.Hy926 endothelial hybrid cells (both 1 × 10^5 cells/mL, 100 µL/well), 518A2 melanoma, KB-V1^Vbl cervix carcinoma, MCF-7^Topo breast carcinoma, HT-29, DLD-1 and HCT-116 colon carcinoma (all 5 × 10^4 cells/mL, 100 µL/well) were grown in 96-well culture plates for 24 h. Then, various concentrations of the test compounds were added and the cells were incubated for 24-72 h at 37 °C. After adding 12.5 µL of a 0.5% MTT solution in PBS (final concentration 0.05%) to cell medium, microplates were incubated for 2 h and subsequently swiftly turned to discard the medium. The precipitate of formazan crystals was then dissolved in a 10% solution of SDS in DMSO containing 0.6% acetic acid. To ensure complete dissolution of formazan, microplates were incubated for at least 4 h at 37 °C. Finally, the absorbance at λ = 570 nm (formazan) and 630 nm (background) was measured using a microplate reader (Tecan F200). All experiments were carried out in quadruplicate and the percentage of viable cells was calculated as the mean ± SD with controls set to 100%. Selected graphs of MTT assays can be found in the Supporting Information (Figure S8).
# [2] = system: HCT-116 colon carcinoma cells; test: MTT assay, HCT-116 colon carcinoma cells; format: cell-based; details: Homo sapiens, HCT-116, read-out: IC50 HCT-116 (72 h)
# Protocol: as §1, §2
# [3] = system: KB-V1^Vbl cervix carcinoma cells; test: MTT assay, KB-V1^Vbl cervix carcinoma cells; format: cell-based; details: Homo sapiens, read-out: IC50 KB-V1^Vbl (72 h)
# Protocol: as §1, §2
# [4] = system: MCF-7^Topo breast adenocarcinoma cells; test: MTT assay, MCF-7^Topo breast carcinoma cells; format: cell-based; details: Homo sapiens, MCF7/Topo, read-out: IC50 MCF-7^Topo (72 h)
# Protocol: as §1, §2
# [5] = system: non-malignant HDFa dermal fibroblasts; test: MTT assay, HDFa dermal fibroblasts; format: cell-based; details: Homo sapiens, read-out: IC50 HDFa (72 h)
# Protocol: as §1
# MTT [3-(4,5-dimethylthiazol-2-yl)-2,5-diphenyltetrazolium bromide] (ABCR) was used to determine the cytotoxicity of test compounds as previously described. Briefly, HDFa human dermal fibroblasts and Ea.Hy926 endothelial hybrid cells (both 1 × 10^5 cells/mL, 100 µL/well), 518A2 melanoma, KB-V1^Vbl cervix carcinoma, MCF-7^Topo breast carcinoma, HT-29, DLD-1 and HCT-116 colon carcinoma (all 5 × 10^4 cells/mL, 100 µL/well) were grown in 96-well culture plates for 24 h. Then, various concentrations of the test compounds were added and the cells were incubated for 24-72 h at 37 °C. […] Finally, the absorbance at λ = 570 nm (formazan) and 630 nm (background) was measured using a microplate reader (Tecan F200). All experiments were carried out in quadruplicate and the percentage of viable cells was calculated as the mean ± SD with controls set to 100%. […]
# 518A2 melanoma cells [6] = test: DCFH-DA assay of intracellular ROS; format: cell-based, human; details: 10 µM, 1 h, vehicle treated controls set to 100%
# From the text: Gosch 2,3, Alexandra […] Rothemund 1, Thomas Mueller 4, […] Schobert 1, Bernhard Biersack 1,*, Andrea Volkamer 3 and Michael […] 2,* 1 Department of Chemistry, University of […], Germany; florian1.schmitt@uni-[…].rothemund@uni -[…].schobert@uni - bayreuth.de (R.S.) 2 Institute of Physiology, Charité-Universitätsmedizin Berlin, Charitéplatz 1, 10117 Berlin, Germany; […].), alexandra.[…].) 3 In Silico Toxicology Group, Institute of Physiology, Charité-Universitätsmedizin Berlin, Charitéplatz 1, 10117 Berlin, Germany; […] 4 Internal Medicine IV, University Hospital […], Germany; thomas.mueller@medizin.uni-[…] * Correspondence: bernhard.biersack@yahoo.com (B.B.); michael.hoepfner@charite.de (M.H.); Tel.: +49-921- 55- 2673 (B.B.); Tel: +49-030-450-528 -515(M.H.); Table of content Material and Methods ... S1 DCFH-DA assay. ... S1 Immuofluorescence staining of acetylated alpha-tubulin ... S2 Wound healing assay ... S2 Results ... S3 Effect on the microtubule cytoskeleton ... S3 Effect on the intracellular ROS levels ... S3 Effect on the acetylation of alpha-tubulin ... S3 Effect on migratory activity ... S5 Effect on mouse weight ... S6 Graphs of MTT assays ... S7 S1 Material and Methods DCFH-DA assay. The assay was performed as previously described. […] 100 μL/well) were grown in a black 96-well plate for 24 h. Then, the cell medium was exchanged for […] After […] and vehicle (DMSO) in serum-free DMEM for 1 h at 37 °C. Then, the cells were washed twice with 100 μL PBS and subsequently placed in a microplate reader (TECAN). The DCF-fluorescence (λex = 485 nm, λem = 535 nm) as a measure of ROS production was determined and that of vehicle treated controls set to 100%. Values exceeding 100% indicate a drug-induced ROS generation. The values of six independent assays were depicted as the means ± SD. There were no outliers and the data fulfilled variance homogeneity (Levene's test, p > 0.05).
# recombinant human HDAC1 = biological target: T1, recombinant human HDAC1 (Homo sapiens, UniProt Q13547); test: HDAC1 inhibitor screening assay (fluorometric); format: biochemical; details: recombinant human HDAC1, mean ± SD of two experiments; read-out: HDAC inhibition IC50, HDAC1
# T1 construct: purchased Cayman Chemicals
# T1 sequence (Q13547 whole entry): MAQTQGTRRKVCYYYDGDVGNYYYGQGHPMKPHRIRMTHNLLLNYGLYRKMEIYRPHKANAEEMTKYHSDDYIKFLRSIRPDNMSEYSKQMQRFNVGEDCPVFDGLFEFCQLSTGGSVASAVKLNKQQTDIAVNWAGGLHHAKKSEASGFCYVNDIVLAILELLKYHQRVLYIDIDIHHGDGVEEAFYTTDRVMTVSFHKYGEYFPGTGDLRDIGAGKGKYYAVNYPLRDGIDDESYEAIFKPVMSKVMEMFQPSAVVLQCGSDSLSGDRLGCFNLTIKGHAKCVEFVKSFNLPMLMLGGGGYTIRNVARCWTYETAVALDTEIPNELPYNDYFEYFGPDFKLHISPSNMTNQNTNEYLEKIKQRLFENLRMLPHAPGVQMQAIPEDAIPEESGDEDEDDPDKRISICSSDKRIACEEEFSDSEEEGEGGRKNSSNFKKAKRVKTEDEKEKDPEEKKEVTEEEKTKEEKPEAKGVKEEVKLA
# Protocol: The HDAC inhibitory potential of the novel compounds was determined by utilizing the deacetylase activity of recombinant human HDAC1 (HDAC1 Inhibitor Screening Assay Kit; Cayman Chemicals) or HDAC6 (HDAC6 Inhibitor Screening Kit (Fluorometric); Biovision) towards the corresponding synthetic acetylated-peptide substrates resulting in the release of a fluorescent product. The assays were performed according to manufacturer’s description of the in commercially available assay kits. […] The IC50 values were derived from dose-response curves and are expressed as the means ± SD of two independent experiments.
# [7] = 518A2, read-out: IC50 518A2 (72 h), 72 h
# [8] = 518A2, 24 h, read-out: IC50 518A2 (24 h)
Structure (SMILES),IC50 (518A2 melanoma cells [1]; [7]) [µM],IC50 (518A2 melanoma cells [1]; [8]) [µM],IC50 [2] [µM],IC50 [3] [µM],IC50 [4] [µM],IC50 [5] [µM],intracellular ROS level (518A2 melanoma cells [6]),IC50 (recombinant human HDAC1) [µM],"IC50 after 72 h compared with IC50 after 24 h (518A2 melanoma cells [1]; 518A2 melanoma cells, fold lower)"
"COc1ccc(-c2ocnc2-c2cc(Br)c(OC)c(OC)c2)cc1OCCCCCC(=O)NO [4f, N-Hydroxy-6-[1-methoxy-4-(4’-(3’’-bromo-4’’,5’’-dimethoxyphenyl)oxazol-5’-yl)-2-phenoxy]hexanamide]",6.4 ± 0.4,7.6 ± 0.2,6.3 ± 0.4,7.1 ± 0.2,8.3 ± 0.7,> 50,198 ± 24%,0.49 ± 0.05,–
"COc1ccc(-c2ocnc2-c2cc(Br)c(OC)c(OC)c2)cc1OCCCCC(=O)NO [4e, N-Hydroxy-5-[1-methoxy-4-(4’-(3’’-bromo-4’’,5’’-dimethoxyphenyl)oxazol-5’-yl)-2-phenoxy]pentanamide]",0.8 ± 0.07,2.4 ± 0.3,2.2 ± 0.3,2 ± 0.3,3.4 ± 0.2,> 100,230 ± 31%,3.8 ± 0.1,–
"COc1ccc(-c2ocnc2-c2cc(Br)c(OC)c(OC)c2)cc1OCCCC(=O)NO [4d, N-Hydroxy-4-[1-methoxy-4-(4’-(3’’-bromo-4’’,5’’-dimethoxyphenyl)oxazol-5’-yl)-2-phenoxy]butanamide]",0.11 ± 0.01,0.71 ± 0.05,0.13 ± 0.01,0.48 ± 0.06,2.8 ± 0.3,23.9 ± 1.6,241% ± 17,4 ± 0.1,about eight-fold
